Laboratory results from PMC5770610, “Structure and function of urea amidolyase” (Bioscience Reports, 2018).

Molecular target: T1, KlAH (Kluyveromyces lactis, UniProt Q6CP22)
T1 construct: gene KLLA0_E08119g; isolated allophanate hydrolase (AH) part, N and C domains, N-terminal part of KlUA; recombinant; homodimer
Assay: glutamate dehydrogenase-coupled NADH assay of ammonium
Assay type: biochemical
Settings: AH activity; 6 mM MgCl2, 20 mM KCl, pH 8.0; substrate as potassium salt; read-out: Km^1
Description: glutamate dehydrogenase-coupled NADH assay of ammonium on KlAH

T1 sequence (Q6CP22 entry or part of it): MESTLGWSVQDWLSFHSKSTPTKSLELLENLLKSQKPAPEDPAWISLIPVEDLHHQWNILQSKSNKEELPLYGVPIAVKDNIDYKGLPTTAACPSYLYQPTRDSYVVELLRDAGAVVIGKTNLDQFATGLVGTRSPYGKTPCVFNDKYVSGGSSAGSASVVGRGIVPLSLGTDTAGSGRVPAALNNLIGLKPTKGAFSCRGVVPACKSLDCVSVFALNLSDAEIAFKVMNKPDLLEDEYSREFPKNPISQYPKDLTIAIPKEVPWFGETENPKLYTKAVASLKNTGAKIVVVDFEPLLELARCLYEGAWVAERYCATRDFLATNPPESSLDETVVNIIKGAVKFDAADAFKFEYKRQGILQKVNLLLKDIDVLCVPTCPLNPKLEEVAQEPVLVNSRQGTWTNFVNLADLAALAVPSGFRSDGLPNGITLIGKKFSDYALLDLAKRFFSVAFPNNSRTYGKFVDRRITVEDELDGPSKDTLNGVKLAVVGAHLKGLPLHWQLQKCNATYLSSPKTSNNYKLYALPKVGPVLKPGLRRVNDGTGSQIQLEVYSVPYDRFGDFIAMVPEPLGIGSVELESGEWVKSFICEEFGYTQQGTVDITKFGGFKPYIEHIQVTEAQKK

Km: 432 ± 60 µM
Compound: NC(=O)NC(=O)O [allophanate]
